Test results as given in BigSolDB 2.1.

CC(C)(Oc1ccc(CCNC(=O)c2ccc(Cl)cc2)cc1)C(=O)O
solubility (mole fraction)
Settings | 283.15 K | 288.15 K | 293.15 K | 298.15 K | 303.15 K | 308.15 K | 313.15 K | 318.15 K | 323.15 K
in ethanol | 0.00223 | 0.00271 | 0.00332 | 0.00402 | 0.00482 | 0.00571 | 0.00689 | 0.00815 | 0.00977
in isopropanol | 0.00152 | 0.00189 | 0.00237 | 0.00307 | 0.00384 | 0.00476 | 0.00563 | 0.00689 | 0.00832
in methanol | 0.0019 | 0.00228 | 0.00283 | 0.00343 | 0.0043 | 0.00526 | 0.00648 | 0.00791 | 0.00948
in n-propanol | 0.00246 | 0.00297 | 0.00361 | 0.00437 | 0.00524 | 0.00631 | 0.00743 | 0.0088 | 0.0101
in water | 1.23e-06 | 1.58e-06 | 2.01e-06 | 2.56e-06 | 3.29e-06 | 4.13e-06 | 5.13e-06 | 6.3e-06 | 7.83e-06
